Data on six compounds can be found in US20200392219A1, “EXTRACELLULAR VESICLES COMPRISING MEMBRANE-TETHERED TGF-BETA, COMPOSITIONS AND METHODS OF USE THEREOF” (TRUSTEES OF TUFTS COLLEGE, priority 2017, published 2020).

The test system of experiment [1] is CD4+ T cells (ConA-stimulated PBMC). Kind of experiment: ConA mitogen-induced CD4+ T cell proliferation in CFSE-stained PBMC (PBMC responder/suppression assay). Type of experiment: cell-based, canine. Conditions: for effect of co-added inhibitor on WJ-MSC EV mediated suppression of CD4+ T cell division: 10 μM TGF-βRI inhibitor, 50 μM ZM241385, 0.1 μg/ml neutralizing antibody. On the procedure: Serum-free culture medium from canine Wharton's Jelly mesenchymal stem cells (WJ-MSC: CD44^+, CD90^+, CD34^−, CD45^−, MHCII^−, n=6 cell lines) was collected after 48 hours, and extracellular vesicles (WJ-EV) were isolated by differential centrifugation. WJ-EV output was assessed using single vesicle nanoparticle tracking analysis (NTA). CFSE-stained peripheral blood mononuclear cells (PBMC) were collected from healthy dogs (n=8), exposed to Concanavalin A mitogen (ConA; 5 μg/ml) and co-incubated with WJ-MSC (1:10) across transwell membrane (0.4 μm pore size) or with WJ-MSC EV (1:10^4)±10 μM SB431542 (TGFβR1 inhibitor) or TGF-β neutralizing (e.g., inhibiting) antibody (Ab) for 72 hours. Analysis of CFSE fluorescence using FlowJo (v7.6.5) yielded % CD4^+ cells that had undergone division (T-cell proliferation).
PBMC responder assay: Twelve healthy adult purpose-bread Beagle dogs (5 neutered males, 7 spayed females) housed at the Laboratory Animal Medicine department at the Cummings School of Veterinary Medicine at Tufts University served as blood donors under an approved protocol. […] or WJ-MSC were tested in triplicate against a minimum of 3 different PBMC donor cell samples (see Figure legends for ‘n’ of each experiment). Healthy status was confirmed by clinical examination, and hematological and serum biochemical testing within six months of blood sampling. All dogs were fasted for 12 hours prior to peripheral blood sampling. Peripheral blood samples were taken via jugular venipuncture using a 21 gauge needle, and blood was immediately placed into an EDTA collection tube and rotated 1-2 times gently. Blood was diluted 1:1 with cold PBS or centrifuged (1300×g, 10 min) prior to dilution 1:2 in PBS, followed by density-gradient centrifugation using Ficoll-Paque (density 1.077; GE Healthcare Life Sciences) to harvest peripheral blood mononuclear cells (PBMC). PBMC were washed in RPMI (Life Technologies) supplemented with 10% heat-inactivated fetal bovine serum (Gibco), […] (Life Technologies), 100 μM β-mercaptoethanol (Sigma-Aldrich), 10,000 U/ml penicillin-streptomycin, 2 mM L-glutamine (Life Technologies), and 2.2 mg/mL of sodium bicarbonate (Thermo Fisher Scientific) (complete RPMI, ‘cRPMI’). For mitogen induced lymphocytes proliferation assays, PBMC were suspended in 1 ml cRPMI and 0.5 μof 10 mM carboxyfluorescein succinimidyl ester (CFSE, Thermo Fisher Scientific) and were incubated (10 min). For initial characterization of WJ-MSC effects on responder PBMC, PBMC were plated on a 24-well plate on the top of a 0.4 μm Transwell (Corning) across from the WJ-MSC in a 10:1 ratio (PBMC:MSC) in a total volume of 1 ml medium (n=3 technical replicates/sample). All plates were incubated at 37° C. in the dark for 72 hours prior to analysis.
Dose-responses of TV MSC-EV: To investigate the dose response of PBMC to WJ-MSC EV, the […] were plated on a 96-well plate in cRPMI with addition of 1 mM ATP, with or without 5 μg/ml Concanavalin A (ConA, Sigma-Aldrich). Responder PBMC were incubated with WJ-MSC EV in a total volume of 200 μL medium (n=3 technical replicates per sample). PBMC were incubated with WJ-MSC EV in a 1:10^2, 1:10^3, or 1:10^4 (PBMC:EV) ratio. After 72 hours of incubation, the PBMC were collected and surface stained for CD4 (rat anti-canine CD4-Alexa 647, clone YKIX302.9, AbD Serotec). Cells were stained for 30 minutes, washed twice with cold PBS and 5% FBS, and resuspended in 200 μl PBS and 5% FBS with 5 μl 7AAD (Becton Dickinson) for analysis by flow cytometry (Accuri C6, Becton Dickinson). The effect of WJ-MSC or WJ-MSC EV on CD4-positive (CD4^+) T cell (i.e., T helper cell) proliferation (percentage of cells proliferating, number of divisions for proliferating cells) was measured by evaluating CFSE fluorescence utilizing the FlowJo® proliferation platform (FlowJo, V10, Ashland, Oreg.) after gating on the viable CD4^+ lymphocyte population. […]

The subject of experiment [2] is WJ-MSC. Kind of experiment: EV (exosome) output from WJ-MSC under GW4869, by nanoparticle tracking analysis. Type of experiment: cell-based, canine. The protocol: Particle size distribution using nanoparticle tracking analysis (NTA): Samples were analyzed using a NanoSight N300 unit (Malvern) equipped with a 488 nm (blue) laser module and Nanoparticle Tracking Analysis 3.0 software. All samples were diluted in sterile PBS to a concentration of 1-10×10^8 particles/mL for analysis. Specific NTA settings were optimized for each sample, with fixed settings of temperature (23° C.), screen gain (1.0), infusion flow rate (5 μL/min), and camera level set at 12-14 depending on sample characteristics. Five videos were recorded for each sample (30-120 s video length) with all settings remaining constant within each sample source to minimize variation. […] The NTA unit was periodically evaluated for accuracy of size determination using polystyrene beads of known size (100 and 200 nm).
EV depletion and enzymatic digestion experiments: EV were isolated as described, resuspended in 5 ml PBS, and divided into 5 fractions of 1 ml each. […] The EV sediment was resuspended in PBS and particle numbers were quantified using nanoparticle tracking analysis (NTA) as described supra. […] The retentate was resuspended in 1 ml PBS, and particle content was evaluated by NTA. […] As well, WJ-MSC EV, EV (10^4:1 PBMC) from conditioned medium of non-MSC fibroblasts (canine left ventricular cardiac fibroblasts) were evaluated for suppression of PBMC.

With “IFN-γ: interferon-gamma used to pre-condition WJ-MSC”, the “further suppression by WJ-MSC or WJ-MSC EV after pre-conditioning of WJ-MSC” value in experiment [1] (WJ-MSC pretreated with 500 ng IFN-γ for 48 hours) is on record as “not statistically significant”.
In the case of `Nc1nc(NCCc2ccc(O)cc2)nc2nc(-c3ccco3)nn12` [ZM241385], the “effect of co-added inhibitor on WJ-MSC EV mediated suppression of CD4+ T cell division” value in experiment [1] (72 h) was “significantly reduced”.
As for `O=C(/C=C/c1ccc(/C=C/C(=O)Nc2ccc(C3=NCCN3)cc2)cc1)Nc1ccc(C2=NCCN2)cc1` [GW4869], the “T cell division with WJ-MSC pre-treated with EV-release inhibitor” value in experiment [1] (WJ-MSC pre-treated 48 hours at 6 μM, then across Transwell from PBMC with ConA, untreated WJ-MSC 28.2±1.4%) turned out to be 51.7±13.5%. For the same compound, the “release of WJ-MSC-EV (particles released in 48 hours)” value in experiment [2] (increasing concentrations, n=3 WJ-MSC lines) is listed as “decreased”. For the same compound, the “concentration giving maximal suppression of exosome output without unacceptable loss of viability” value in experiment [2] (increasing doses applied to WJ-MSC, 48 hours) lay within 5 to 10 µM.
As for Triton-X, the “effect of pre-treating WJ-MSC EV on their suppression of CD4+ T cell division” value in experiment [1] (0.1% Triton-X, 2 μg/ml RNAse A, proteinase K 30 min 37°C, heparinase 0.006 U/ml 3 hours, 10^4 EV:1 PBMC) was “completely abrogated”.
As for “soluble TGF-β1: recombinant human TGF-β1 (R&D Systems)”, the entries for the “suppression of mitogen driven T cell division by exogenous TGF-β” value in experiment [1] (5 ng/ml added to ConA stimulated PBMC), in experiment [1] (10 ng/ml added to ConA stimulated PBMC) and in experiment [1] (50 ng/ml added to ConA stimulated PBMC) were “not”, “suppressed” and “suppressed”, respectively. Further, the “% CD4+ division (CD4+ cells that had undergone division)” value in experiment [1] (Example 2, ConA 5 μg/ml, 72 h, WJ-MSC 1:10 across transwell, WJ-EV 1:10^4, ConA alone 60±17%) stood at 21±10%.
Turning to `NC(=O)c1ccc(-c2nc(-c3ccc4c(c3)OCO4)c(-c3ccccn3)[nH]2)cc1` [SB431542], the “effect of co-added inhibitor on WJ-MSC EV mediated suppression of CD4+ T cell division” value in experiment [1] (72 h) is “significantly reduced”. Besides, the “% CD4+ division” value in experiment [1] (Example 2, 10 μM SB431542 added to ConA+WJ-EV, ConA+WJ-EV alone 23±13%) worked out at 52±17%.
